{"source": "patent US9750714B2", "about": "“Pharmaceutical use of 3, 4-bis-benzylsulfonylbutyronitrile” (Olatec Therapeutics LLC, priority 2013, dated 2017)", "key": {"[1]": {"test_system": "tail flick response to heat stimulus", "test": "tail flick test in mice (49° C. water bath)", "assay_type": "in vivo", "experimental": "The tail flick test is a test of the pain response in animals. The tail flick test is used in basic pain research and to measure the effectiveness of analgesics, by observing the tail flick reaction to heat in an animal. This test assesses the nociceptive response to a local pain stimulus, and the ability of a drug to inhibit this response.\nVehicle control (DMSO) and test compound 3, 4-bis-benzylsulfonylbutanenitrile in DMSO were administered by oral gavage to mice with a volume of 5 mL/kg, immediately prior to testing, at time zero. The test compound was administered at a dosage of 500 mg/kg in DMSO. Positive control morphine in water was administered at time zero by subcutaneous injection at 8 mg/kg to mice. […] The purpose of morphine is […] to serve as a comparison with the test compound. Each group had 10 mice.\nThe response of mice to heat stimulus was evaluated by measuring the time of tail-flick or tail-flick latency from 49° C. water bath. Briefly, the animal was held with its tail hanging down. Approximately 2 inches of the tail was immersed in a beaker of water at 38±1° C. for about 30 seconds, and this was done twice to acclimate the animal to the procedure.\nSubsequently, approximately 2 inches of the tail was immersed in a beaker of water at 49±1° C., at which point a timer was started.\nTail flick measurements were made at 0, 30, 60, and 120 minutes post administration of the dosage of test compound, vehicle, or morphine. An ANOVA was done, and if p<0.05, a Dunnett's t test was employed to calculate significant difference between vehicle control and test compound treated groups. A pairwise Student's t test was used to calculate differences between the morphine group and the control group. […] Analysis with p-values<0.05 is considered significant."}, "[2]": {"test_system": "arachidonic acid-induced ear swelling", "test": "topical arachidonic acid-induced ear swelling model in mice", "assay_type": "in vivo", "experimental": "The test compound, indomethacin (positive control), and vehicle were evaluated for anti-inflammatory activity in a topical arachidonic acid-induced ear swelling model in mice. Male ICR mice weighing 22±2 g were used and randomly divided; the test compound and vehicle control had 10 mice, and indomethacin had 5 mice. Arachidonic Acid (0.5 mg in 20 μl of acetone:ethanol/1:1) was applied topically to the anterior and posterior surfaces of the right ear of each mouse. Test substances and vehicle, as listed in Table 2 were similarly applied 30 min before and 15 min after arachidonic acid application. The thickness of the right ear and the left ear was measured and the difference calculated as an indication of the inflammation in the right ear. Ear swelling was measured by a Dyer model micrometer gauge at 60 and 90 minutes after arachidonic acid application as an index of inflammation. Percent inhibition was calculated according to the formula: Ic−It/Ic×100, where Ic and It refers to increase of ear thickness (mm) in control and treated mice, respectively. ANOVA and Dunnett's test were employed to ascertain significant difference between vehicle control and treated groups. Significance is set at P<0.05 level."}}, "data": [{"smiles": "N#CCC(CS(=O)(=O)Cc1ccccc1)S(=O)(=O)Cc1ccccc1", "note": "(stereo not drawn) [3,4-bis-benzylsulfonylbutanenitrile, 3,4-bis-benzylsulfonylbutanenitrile]", "values": [{"measurement": "tail flick latency compared with vehicle-treated mice", "setting": "[1]; test compound 500 mg/kg in DMSO, oral, 120 minutes post dosing", "result": "statistically significant"}, {"measurement": "anti-inflammatory activity in the mouse ear swelling model (in words)", "setting": "[2]; applied topically, inflammation induced by arachidonic acid", "result": "anti-inflammatory"}]}, {"smiles": "COc1ccc2c(c1)c(CC(=O)O)c(C)n2C(=O)c1ccc(Cl)cc1", "note": "[Indomethacin, reference compound]", "values": [{"measurement": "% Inhibition of ear swelling", "setting": "[2]; topical, applied 30 min before and 15 min after arachidonic acid, measured at 90 minutes, relative to vehicle, indomethacin 14 mM (0.1 mg/20 μL), test compound 375 mM (2.8 mg/20 μL)", "result": 58, "unit": "%"}]}, {"smiles": "CN1CC[C@]23c4c5ccc(O)c4O[C@H]2[C@@H](O)C=C[C@H]3[C@H]1C5", "note": "[morphine]", "values": [{"measurement": "tail flick latency compared with vehicle-treated mice", "setting": "[1]; morphine 8 mg/kg subcutaneous, 30 minutes post dosing", "result": "statistically significant"}, {"measurement": "tail flick latency compared with vehicle-treated mice", "setting": "[1]; morphine 8 mg/kg subcutaneous, 60 minutes post dosing", "result": "statistically significant"}, {"measurement": "tail flick latency compared with vehicle-treated mice", "setting": "[1]; morphine 8 mg/kg subcutaneous, 120 minutes post dosing", "result": "not"}]}]}
